Test results as given in publication PMC10915964, “Identifying ligands for the PHD1 finger of KDM5A through high-throughput screening†” (RSC Chemical Biology, 2023).

Assay: Solubility in the NMR buffer
Type: physicochemical
Settings: 1 mM in 50 mM HEPES pH 7.5, 150 mM KCl NMR buffer
Protocol: The binding of the ChemBridge screen hits to PHD1 was further evaluated using 2D ^1H–^15N HSQC NMR spectroscopy. This direct binding method allowed us to monitor binding by observing any ligand-induced changes in the previously assigned ^1H–^15N PHD1 amino acid resonances.[12] The HSQC spectra of 50 μM ^15N-labeled PHD1 with DMSO were overlaid with the spectra of the ^15N-labeled PHD1 incubated with 1 mM compound. […] Compound 715 958 was insoluble in the NMR buffer at this concentration and was not evaluated.
The six NCI screen hits confirmed by dose response in the FP assay were further evaluated by 2D ^1H–^15N HSQC NMR at 1 mM to assess their direct binding to PHD1 (Fig. S5, ESI ^†). Compound 990 670 was insoluble in the NMR buffer and was excluded from further consideration. Out of the five compounds evaluated, 991 830, 990 856, and 988 385 caused very minor CSP on PHD1 (average shifts ≤ 0.002 ppm; Fig. S5a–c, ESI ^†). […] The observed perturbations are low, but in the range of those induced by competitive binding fragment ligands evaluated at 5 mM with the PHD finger of BAZ2B, for which the perturbations observed were up to 0.035 ppm.[19] Residue Cys322, one of the Zn(II) ligands in the first zinc finger in PHD1, is the most affected by the presence of oxazepine 516 969 (Δδ of 0.009 ppm; Fig. S5d, ESI ^†). […]

Cc1ccc(N2CC(c3nnc(NC(=O)c4c(-c5ccccc5)noc4C)s3)CC2=O)cc1C (stereo not shown) [990 670]
solubility in the NMR buffer: insoluble
